Source: patent publication US20240327364A1, “THERAPEUTIC TARGETING OF GPR68 TO INDUCE FERROPTOSIS” (University Of Maryland, Baltimore, priority 2023, published 2024)
pEC50: −log10 of the molar value. Where two headings read alike, the source gives them in different places.

Assays:
[1] = target: T1, GPR68/OGR1 (Homo sapiens, UniProt Q15743); experiment: CHEM1-OGR1 cells Fluo-8 calcium assay, acidified media pH 6.4; type: cell-based
T1 construct: host or cells: Chem-1 (CHEM1-OGR1) cells
Method: Briefly, the methods were: On the day before the assay 20,000 cells per well of CHEM1-OGR1 cells were plated in 10% DMEM containing 10% FBS and 1% Pen/Strep into a 96 well plate. After 24 hours media was removed and cells were stained with 80 μL Fluo-8 calcium indicator dye according to manufacturer's protocol. After staining cells were treated with 20 uL of 4× concentration of test compounds. Using kinetic imaging in the Lionheart HCS fluorescence intensity was continuously measure at 10 frames per second, for 5 seconds before 100 μL of acidified media was added to the well resulting in a pH of 6.4. A ratio of fluorescence intensities prior to addition and at peak were calculated and averaged. The resulting data were platted and using a 4 parameter logistic regression EC50 (the concentration causing 50% effective inhibition) for each test compound was determined.

[2] = target: T2, GPR68 (Homo sapiens, UniProt Q15743); experiment: Acid-induced calcium response, GPR68-transfected HEK293 cells; type: cell-based
T2 sequence (Q15743 whole entry): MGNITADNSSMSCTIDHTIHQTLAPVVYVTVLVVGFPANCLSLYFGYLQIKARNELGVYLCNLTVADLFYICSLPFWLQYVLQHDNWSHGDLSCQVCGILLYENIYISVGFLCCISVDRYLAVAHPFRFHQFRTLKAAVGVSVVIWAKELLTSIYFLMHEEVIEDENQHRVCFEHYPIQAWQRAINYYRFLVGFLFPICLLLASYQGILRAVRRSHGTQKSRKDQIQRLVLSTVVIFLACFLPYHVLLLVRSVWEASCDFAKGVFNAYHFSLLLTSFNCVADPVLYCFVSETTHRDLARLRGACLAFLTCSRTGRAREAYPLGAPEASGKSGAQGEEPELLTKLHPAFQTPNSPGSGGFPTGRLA

[3] = system: human pulmonary artery endothelial cells (HPAECs); experiment: Cyclic stretch-triggered endothelial cell activation; type: cell-based; details: for Rho activation by 18% cyclic stretch: OGM2 at 5 μM, OGM1 at 3 μM, Rho-GTP pulldown
Method: FIG. 33A through FIG. 33D: Cyclic stretch-triggered endothelial cell (EC) activation is abolished by OGM2 and OGM1. FIG. 33A: In human pulmonary artery endothelial cells (HPAECs), pretreatment with OGMs (OGM2 at 5 μM and OGM1 at 3 μM) abolished Rho activation by 18% cyclic stretch (18% CS), as determined by Rho-GTP pulldown assay. ST, static condition. FIG. 33B: Treatment with OGM2 or OGM1 blocked CS-triggered activation of myosin phosphatase target (MYPT) and myosin light chain (MLC) in ECs, as determined by their phosphorylation MYPT and MLC. FIG. 33C: OGM2 or OGM1 blocked CS-induced TNF-α mRNA expression in ECs. n=3, ^#P<0.05 versus ST, *P<0.05 versus 18% CS. Error bars, standard deviation. FIG. 33D: OGM2 and OGM1 blocked CS-induced VCAM-1 expression in ECs. Here, OGM=OGM2.

[4] = target: T2, GPR68; experiment: Chem1-OGR1 cells washout (reversibility); type: cell-based; parameters: host or cells: Chem-1 cells (Chem1-OGR1); details: for reversibility of GPR68 inhibition: washout
Method: Chem1-GPR68 reporter cells were treated with 20 uM OM8345 for 2 hours and then rinsed with HBSS. […] The GPR68 inhibitory activity of OGM analogs segregated with the ability of the molecule to induce the phenotype in zebrafish.
Additional experiments, whereby OGM2 was resynthesized and used (due to its submicromolar potency and GPR68 specificity) were performed. See FIG. 6A (HNMR of resynthesis of OGM2) and FIG. 6B (LCMS of resynthesis of OGM2). To test the possibility of OGM2 being an irreversible inhibitor, Chem1-OGR1 cells (Millipore™) were incubated with 10 μM OGM2 for 4 hours, and after removing the compound stimulated with pH 6.4 medium. […] Time till 50% max ˜52 minutes. The signal returned back towards baseline uninhibited levels in a rapid and time-dependent manner.

[5] = target: CSNK1D (Homo sapiens, UniProt P48730); experiment: KinomeScan; type: binding; details: read-out: % Control
CSNK1D, sequence (P48730 whole entry): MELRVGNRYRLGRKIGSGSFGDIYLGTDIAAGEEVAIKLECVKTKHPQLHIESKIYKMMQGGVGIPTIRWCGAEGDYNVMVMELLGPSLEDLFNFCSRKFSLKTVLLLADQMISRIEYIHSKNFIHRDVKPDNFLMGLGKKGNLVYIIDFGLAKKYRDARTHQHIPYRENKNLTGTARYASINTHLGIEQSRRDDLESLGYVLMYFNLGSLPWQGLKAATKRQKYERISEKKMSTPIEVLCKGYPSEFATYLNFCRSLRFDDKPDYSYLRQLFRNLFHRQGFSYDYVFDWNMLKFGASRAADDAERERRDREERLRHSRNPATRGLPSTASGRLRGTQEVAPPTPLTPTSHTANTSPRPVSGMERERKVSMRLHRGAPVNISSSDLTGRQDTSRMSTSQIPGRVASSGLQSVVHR

[6] = target: T3, ICK (Homo sapiens, UniProt Q9UPZ9); experiment: KinomeScan; type: binding; details: read-out: % Control
T3 construct: purchased DiscoveRx (Fremont, CA)

[7] = target: T4, KIT(V559D) (Homo sapiens, UniProt P10721, V559D); experiment: KinomeScan; type: binding; details: read-out: % Control
T4 construct: purchased DiscoveRx

[8] = target: T5, LRRK2 (Homo sapiens, UniProt Q5S007); experiment: KinomeScan; type: binding; details: read-out: % Control
T5 construct: purchased DiscoveRx

[9] = target: T6, MKNK1 (Homo sapiens, UniProt Q9BUB5); experiment: KinomeScan; type: binding; details: read-out: % Control
T6 construct: purchased DiscoveRx
T6 sequence (Q9BUB5 whole entry): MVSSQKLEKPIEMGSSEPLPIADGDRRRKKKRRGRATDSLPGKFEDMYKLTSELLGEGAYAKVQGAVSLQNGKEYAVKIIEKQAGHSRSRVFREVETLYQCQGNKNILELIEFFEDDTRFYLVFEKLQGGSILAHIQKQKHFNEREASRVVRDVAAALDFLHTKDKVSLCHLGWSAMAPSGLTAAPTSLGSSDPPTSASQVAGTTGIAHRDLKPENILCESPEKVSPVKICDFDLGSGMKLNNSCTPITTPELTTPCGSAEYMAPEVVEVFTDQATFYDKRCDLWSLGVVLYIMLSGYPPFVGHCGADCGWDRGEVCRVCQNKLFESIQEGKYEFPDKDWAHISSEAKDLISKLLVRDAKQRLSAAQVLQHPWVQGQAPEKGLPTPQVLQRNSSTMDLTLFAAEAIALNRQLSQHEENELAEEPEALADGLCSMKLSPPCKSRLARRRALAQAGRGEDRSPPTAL

[10] = target: T7, NEK3 (Homo sapiens, UniProt P51956); experiment: KinomeScan; type: binding; details: read-out: % Control
T7 construct: purchased DiscoveRx
T7 sequence (P51956 whole entry): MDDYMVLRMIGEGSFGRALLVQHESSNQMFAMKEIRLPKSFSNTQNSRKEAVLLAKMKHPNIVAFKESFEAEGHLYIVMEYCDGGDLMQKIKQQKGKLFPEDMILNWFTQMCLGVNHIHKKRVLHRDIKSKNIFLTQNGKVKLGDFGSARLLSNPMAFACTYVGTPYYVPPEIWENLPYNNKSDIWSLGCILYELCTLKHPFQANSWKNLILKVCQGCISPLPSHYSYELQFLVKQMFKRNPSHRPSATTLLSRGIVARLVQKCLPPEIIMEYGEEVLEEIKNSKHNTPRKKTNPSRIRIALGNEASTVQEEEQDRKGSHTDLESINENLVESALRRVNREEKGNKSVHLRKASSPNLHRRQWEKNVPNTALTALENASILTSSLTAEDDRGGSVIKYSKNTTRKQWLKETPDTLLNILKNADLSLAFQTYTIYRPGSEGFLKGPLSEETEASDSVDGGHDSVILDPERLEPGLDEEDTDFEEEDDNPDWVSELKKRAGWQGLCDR

[11] = target: T8, PRKCD (Homo sapiens, UniProt Q05655); experiment: KinomeScan; type: binding; details: read-out: % Control
T8 construct: purchased DiscoveRx (Fremont, CA)
T8 sequence (Q05655 whole entry): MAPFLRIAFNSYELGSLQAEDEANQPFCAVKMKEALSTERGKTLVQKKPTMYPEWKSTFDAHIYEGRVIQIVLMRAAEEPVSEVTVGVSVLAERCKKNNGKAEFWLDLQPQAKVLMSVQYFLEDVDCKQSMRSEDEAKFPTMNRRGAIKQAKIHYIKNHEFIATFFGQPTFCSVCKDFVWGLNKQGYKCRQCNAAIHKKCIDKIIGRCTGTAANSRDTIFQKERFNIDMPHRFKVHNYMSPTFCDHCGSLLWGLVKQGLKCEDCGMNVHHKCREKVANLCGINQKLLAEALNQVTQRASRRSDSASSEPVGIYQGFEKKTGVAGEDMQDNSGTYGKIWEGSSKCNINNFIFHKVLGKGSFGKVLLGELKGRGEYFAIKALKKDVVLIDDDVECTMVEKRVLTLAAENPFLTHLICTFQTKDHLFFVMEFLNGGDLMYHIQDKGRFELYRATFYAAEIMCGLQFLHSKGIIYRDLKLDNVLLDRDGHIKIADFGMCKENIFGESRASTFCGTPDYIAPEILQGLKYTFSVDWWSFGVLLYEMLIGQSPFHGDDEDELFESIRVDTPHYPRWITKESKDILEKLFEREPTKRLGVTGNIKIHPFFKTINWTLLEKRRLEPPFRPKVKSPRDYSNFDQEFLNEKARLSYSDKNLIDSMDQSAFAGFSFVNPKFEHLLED

[12] = target: T9, TAOK1 (Homo sapiens, UniProt Q7L7X3); experiment: KinomeScan; type: binding; details: read-out: % Control
T9 construct: purchased DiscoveRx (Fremont, CA)
T9 sequence (Q7L7X3 whole entry): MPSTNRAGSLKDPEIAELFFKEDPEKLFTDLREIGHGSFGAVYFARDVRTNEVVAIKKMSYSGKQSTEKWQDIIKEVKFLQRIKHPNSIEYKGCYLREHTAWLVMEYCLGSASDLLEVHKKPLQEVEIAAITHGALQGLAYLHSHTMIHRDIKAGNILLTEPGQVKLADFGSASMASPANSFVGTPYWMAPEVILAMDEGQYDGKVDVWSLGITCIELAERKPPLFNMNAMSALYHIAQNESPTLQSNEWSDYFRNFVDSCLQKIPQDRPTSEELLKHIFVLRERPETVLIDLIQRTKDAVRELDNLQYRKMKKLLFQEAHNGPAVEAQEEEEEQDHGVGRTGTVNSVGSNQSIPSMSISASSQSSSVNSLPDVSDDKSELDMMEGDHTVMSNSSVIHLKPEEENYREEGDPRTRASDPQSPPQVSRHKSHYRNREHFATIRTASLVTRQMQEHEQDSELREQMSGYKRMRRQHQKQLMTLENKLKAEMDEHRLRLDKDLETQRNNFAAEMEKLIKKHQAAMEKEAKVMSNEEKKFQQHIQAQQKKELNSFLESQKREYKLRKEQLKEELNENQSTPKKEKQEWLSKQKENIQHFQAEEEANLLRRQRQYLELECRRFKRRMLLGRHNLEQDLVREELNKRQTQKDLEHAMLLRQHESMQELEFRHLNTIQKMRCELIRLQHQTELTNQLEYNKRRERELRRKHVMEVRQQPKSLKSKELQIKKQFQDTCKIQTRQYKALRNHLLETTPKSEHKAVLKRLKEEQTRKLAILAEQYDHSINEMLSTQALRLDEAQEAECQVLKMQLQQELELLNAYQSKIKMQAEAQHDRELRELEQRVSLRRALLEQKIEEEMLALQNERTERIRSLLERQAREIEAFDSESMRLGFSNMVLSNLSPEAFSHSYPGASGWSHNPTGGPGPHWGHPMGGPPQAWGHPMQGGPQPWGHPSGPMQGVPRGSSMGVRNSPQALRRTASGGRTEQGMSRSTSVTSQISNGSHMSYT

[13] = target: T10, M5 (Homo sapiens, UniProt P08912); experiment: GPCR Profiler; type: cell-based
T10 construct: host or cells: Chem-1 cells with promiscuous Gα15
T10 sequence (P08912 whole entry): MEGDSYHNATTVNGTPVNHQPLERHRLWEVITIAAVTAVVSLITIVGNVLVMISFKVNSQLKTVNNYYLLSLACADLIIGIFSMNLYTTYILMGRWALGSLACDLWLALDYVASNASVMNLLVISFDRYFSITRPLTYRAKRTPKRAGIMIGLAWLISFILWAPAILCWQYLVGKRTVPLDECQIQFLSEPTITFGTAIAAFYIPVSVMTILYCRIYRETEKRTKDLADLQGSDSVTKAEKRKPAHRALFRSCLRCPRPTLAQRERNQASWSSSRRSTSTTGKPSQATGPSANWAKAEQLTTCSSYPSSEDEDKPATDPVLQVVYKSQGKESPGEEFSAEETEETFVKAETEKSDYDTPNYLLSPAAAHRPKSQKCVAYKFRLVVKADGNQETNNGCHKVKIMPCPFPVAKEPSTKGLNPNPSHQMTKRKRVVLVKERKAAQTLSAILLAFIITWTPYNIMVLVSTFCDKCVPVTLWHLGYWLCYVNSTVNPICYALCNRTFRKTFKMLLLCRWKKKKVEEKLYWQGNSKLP

[14] = target: T11, TSH (Homo sapiens, UniProt P16473); experiment: GPCR Profiler; type: cell-based
T11 construct: host or cells: Chem-1 cells with Gα15
T11 sequence (P16473 21-764): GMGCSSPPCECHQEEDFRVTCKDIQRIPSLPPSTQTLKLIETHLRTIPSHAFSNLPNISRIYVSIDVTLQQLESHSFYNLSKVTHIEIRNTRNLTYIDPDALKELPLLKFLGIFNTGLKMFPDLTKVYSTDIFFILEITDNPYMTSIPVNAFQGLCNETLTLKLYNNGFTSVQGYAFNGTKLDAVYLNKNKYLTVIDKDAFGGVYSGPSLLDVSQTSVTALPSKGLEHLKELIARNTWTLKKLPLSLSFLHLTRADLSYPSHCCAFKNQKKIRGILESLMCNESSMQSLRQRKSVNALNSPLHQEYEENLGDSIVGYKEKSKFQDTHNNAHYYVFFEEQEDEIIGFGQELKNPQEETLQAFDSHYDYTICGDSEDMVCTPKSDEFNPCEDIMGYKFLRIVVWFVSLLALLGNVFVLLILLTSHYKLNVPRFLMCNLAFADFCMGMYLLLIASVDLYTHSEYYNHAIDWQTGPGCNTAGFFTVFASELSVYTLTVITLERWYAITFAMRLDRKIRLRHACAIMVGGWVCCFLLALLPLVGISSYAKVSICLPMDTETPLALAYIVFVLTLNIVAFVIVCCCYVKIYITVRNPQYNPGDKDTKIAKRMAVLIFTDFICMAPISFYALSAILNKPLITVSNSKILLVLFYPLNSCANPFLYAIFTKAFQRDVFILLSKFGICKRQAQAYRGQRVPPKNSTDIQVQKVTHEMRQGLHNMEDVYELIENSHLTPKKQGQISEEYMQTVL

[15] = concentration causing 50% effective inhibition of calcium response to pH 6.4, read-out: EC50

T1 sequence (Q15743 whole entry): as the sequence (Q15743 whole entry) above

CCc1ccc2c(c1)C1(NN=C(c3ccccc3)S1)C(=O)N2 (stereo not drawn) [OGM2]
pEC50 ([1]; Table 5, read-out: GPR68): 6.15
pEC50 [1, 15]: 6.15
calcium response to extracellular acidification [2]: inhibited
CS-induced TNF-α mRNA expression [3]: blocked
CS-induced VCAM-1 expression [3]: blocked
Rho activation by 18% cyclic stretch [3]: abolished
Time till 50% max ([4]; recovery of GPR68 activity after washout, 10 μM OGM2 for 4 hours, pH 6.4 medium): ~52 min
reversibility of GPR68 inhibition [4]: reversible and highly specific inhibitor of GPR68
reversibility of GPR68 inhibition ([4]; listed as OM8345): reversible inhibition of GPR68

CCc1ccc2c(c1)C1(NN=C(c3cccc4ccccc34)S1)C(=O)N2 (stereo not drawn) [OGM1, 5-ethyl-5′-naphthalen-1-ylspiro[1H-indole-3,2′-3H-1,3,4-thiadiazole]-2-one]
pEC50 ([1]; Table 5, read-out: GPR68): 6.80
pEC50 [1, 15]: 6.51
remaining binding at 10 µM [5]: 100%
remaining binding at 10 µM [6]: 81%
remaining binding at 10 µM [7]: 71%
remaining binding at 10 µM [8]: 100%
remaining binding at 10 µM [9]: 90%
remaining binding at 10 µM [10]: 71%
remaining binding at 10 µM [11]: 100%
remaining binding at 10 µM [12]: 83%
Antagonism ([13]; 10 uM): 3.4
Agonism ([13]; 12.5 uM): −0.6
Antagonism ([14]; 10 uM): 5.9
Agonism ([14]; 12.5 uM): −0.1
CS-induced TNF-α mRNA expression [3]: blocked
CS-induced VCAM-1 expression [3]: blocked
Rho activation by 18% cyclic stretch [3]: abolished
reversibility of GPR68 inhibition [4]: reversible inhibitor of GPR68
